Earlier results as cited in patent US20250082627A1, “TOBACCO HARM REDUCTION AND PAIN RELIEF PRODUCTS AND METHODS THEREOF” (Ready Mix Naturals, LLC, priority 2023, published 2025).

Tests used:
[1] = target: TRPV1 (Homo sapiens, UniProt Q8NER1); conditions: among phytocannabinoids
[2] = target: TRPA1 (Homo sapiens, UniProt O75762)
[3] = target: T1, TRPV2 (Homo sapiens, UniProt Q9Y5S1); conditions: among phytocannabinoids
T1 sequence (Q9Y5S1 1-764): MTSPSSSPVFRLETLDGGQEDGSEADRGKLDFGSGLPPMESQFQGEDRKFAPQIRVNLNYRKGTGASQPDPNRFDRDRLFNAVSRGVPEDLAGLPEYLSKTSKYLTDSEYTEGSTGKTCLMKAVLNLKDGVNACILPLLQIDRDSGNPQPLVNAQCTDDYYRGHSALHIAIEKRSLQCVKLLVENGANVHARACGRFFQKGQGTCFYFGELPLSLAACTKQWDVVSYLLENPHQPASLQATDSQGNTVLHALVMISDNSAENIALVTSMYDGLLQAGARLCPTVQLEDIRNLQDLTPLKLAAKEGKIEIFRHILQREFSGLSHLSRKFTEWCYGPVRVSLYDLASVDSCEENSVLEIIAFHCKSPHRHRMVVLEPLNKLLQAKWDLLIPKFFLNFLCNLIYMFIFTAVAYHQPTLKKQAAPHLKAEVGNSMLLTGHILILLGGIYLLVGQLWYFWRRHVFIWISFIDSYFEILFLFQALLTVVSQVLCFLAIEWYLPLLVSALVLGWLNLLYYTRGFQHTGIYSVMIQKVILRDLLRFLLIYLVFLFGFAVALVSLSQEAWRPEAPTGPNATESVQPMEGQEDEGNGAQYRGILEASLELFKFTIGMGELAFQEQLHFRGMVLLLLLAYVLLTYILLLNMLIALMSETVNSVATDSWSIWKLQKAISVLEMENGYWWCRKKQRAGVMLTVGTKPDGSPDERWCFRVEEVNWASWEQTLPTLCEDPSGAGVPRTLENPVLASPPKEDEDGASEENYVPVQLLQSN

Chain of TRPA1 (O75762 whole entry, species assumed): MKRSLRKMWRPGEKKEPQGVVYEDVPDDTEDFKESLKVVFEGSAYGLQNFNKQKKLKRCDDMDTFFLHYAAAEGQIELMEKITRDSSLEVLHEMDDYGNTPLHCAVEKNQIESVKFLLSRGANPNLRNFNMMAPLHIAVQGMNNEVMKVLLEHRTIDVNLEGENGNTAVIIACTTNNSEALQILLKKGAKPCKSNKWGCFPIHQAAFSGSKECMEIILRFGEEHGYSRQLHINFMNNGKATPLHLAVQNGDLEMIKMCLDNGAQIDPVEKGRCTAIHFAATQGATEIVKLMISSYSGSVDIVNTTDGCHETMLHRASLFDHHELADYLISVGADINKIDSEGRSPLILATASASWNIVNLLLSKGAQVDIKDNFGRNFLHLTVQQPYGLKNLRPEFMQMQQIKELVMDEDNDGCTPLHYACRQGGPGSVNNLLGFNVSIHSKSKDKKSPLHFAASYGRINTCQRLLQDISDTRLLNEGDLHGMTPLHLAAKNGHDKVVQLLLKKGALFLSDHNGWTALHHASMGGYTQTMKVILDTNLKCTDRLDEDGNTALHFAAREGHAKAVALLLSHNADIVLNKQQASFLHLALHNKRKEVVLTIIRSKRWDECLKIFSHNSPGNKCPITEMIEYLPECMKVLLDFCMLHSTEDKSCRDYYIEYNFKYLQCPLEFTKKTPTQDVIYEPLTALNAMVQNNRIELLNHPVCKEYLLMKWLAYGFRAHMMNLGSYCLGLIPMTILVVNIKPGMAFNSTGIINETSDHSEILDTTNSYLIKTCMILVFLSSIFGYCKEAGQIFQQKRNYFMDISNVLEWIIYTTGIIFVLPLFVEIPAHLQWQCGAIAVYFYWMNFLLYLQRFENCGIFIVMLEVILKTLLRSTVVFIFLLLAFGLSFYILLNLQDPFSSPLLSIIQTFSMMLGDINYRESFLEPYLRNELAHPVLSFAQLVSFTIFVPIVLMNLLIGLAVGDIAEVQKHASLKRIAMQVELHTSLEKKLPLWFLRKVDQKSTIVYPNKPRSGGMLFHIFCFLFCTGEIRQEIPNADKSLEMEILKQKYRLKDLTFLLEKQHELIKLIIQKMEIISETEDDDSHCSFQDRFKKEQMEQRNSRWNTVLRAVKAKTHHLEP
Chain of TRPV1 (Q8NER1 whole entry, species assumed): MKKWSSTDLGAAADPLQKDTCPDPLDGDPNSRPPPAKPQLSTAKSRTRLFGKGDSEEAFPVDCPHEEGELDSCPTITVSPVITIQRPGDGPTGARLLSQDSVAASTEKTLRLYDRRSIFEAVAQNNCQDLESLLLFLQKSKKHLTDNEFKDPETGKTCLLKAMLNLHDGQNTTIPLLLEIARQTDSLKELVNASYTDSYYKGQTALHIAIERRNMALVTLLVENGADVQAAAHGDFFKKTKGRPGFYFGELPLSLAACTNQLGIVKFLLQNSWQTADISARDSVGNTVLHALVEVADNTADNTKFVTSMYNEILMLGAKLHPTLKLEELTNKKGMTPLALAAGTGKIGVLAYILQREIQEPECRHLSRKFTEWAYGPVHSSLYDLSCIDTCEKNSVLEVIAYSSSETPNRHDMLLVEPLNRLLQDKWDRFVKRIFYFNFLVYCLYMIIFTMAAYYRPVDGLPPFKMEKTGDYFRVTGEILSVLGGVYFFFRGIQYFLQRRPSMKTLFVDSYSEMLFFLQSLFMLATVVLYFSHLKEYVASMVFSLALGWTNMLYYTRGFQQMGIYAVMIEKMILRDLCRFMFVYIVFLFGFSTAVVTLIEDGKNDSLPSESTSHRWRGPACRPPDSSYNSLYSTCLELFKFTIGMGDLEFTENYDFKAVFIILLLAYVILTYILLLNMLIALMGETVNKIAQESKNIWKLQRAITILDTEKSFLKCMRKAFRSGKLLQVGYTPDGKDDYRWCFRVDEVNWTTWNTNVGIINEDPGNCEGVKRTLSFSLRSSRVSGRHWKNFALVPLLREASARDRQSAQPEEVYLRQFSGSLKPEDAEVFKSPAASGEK

| Structure (SMILES) | agonism of TRPV1 [1] | activation of TRPA1 [2] | activation of TRPV2 [3] |
| --- | --- | --- | --- |
| C=C(C)[C@@H]1CCC(C)=C[C@H]1c1c(O)cc(CCCCC)cc1O [CBD, cannabidiol] | most potent and efficacious phytocannabinoid agonist of TRPV1 | – | – |
| CN1CCCC1c1cccnc1 (stereo not shown) [nicotine] | – | known activator of TRPA1 | – |
| CCCCCc1cc(O)c2c(c1)OC(C)(C)[C@@H]1CCC(C)=C[C@@H]21 [Δ^9-THC, Δ^9-tetrahydrocannabinol] | – | also activates TRPA1 | most potent phytocannabinoid for activating TRPV2 |
